Laboratory results: patent US20240383901A1, “SUBSTITUTED PYRROLO[2,3-D]PYRIMIDINES, THEIR PREPARATION AND THEIR THERAPEUTIC APPLICATION” (SANOFI, priority 2021, published 2024)
pIC50: −log10 of the molar value.

Target: LRRK2 (Homo sapiens, UniProt Q5S007)
Test: LRRK2 WT assay (Assay B, radiometric 33P-ATP filter binding)
Assay type: biochemical
Conditions: Assay B (values marked *)
Description: LRRK2(human) is incubated with 50 mM HEPES pH 8.0, 0.2 mM EDTA, 0.01% Brij-35, 1% (w/v) BSA, 5 mM DTT, 250 Mm […], 10 mM Magnesium acetate and [[…]]-ATP (specific activity and concentration as required).
The reaction is initiated by the addition of the Mg/ATP mix.

Sequence of LRRK2 (Q5S007 whole entry): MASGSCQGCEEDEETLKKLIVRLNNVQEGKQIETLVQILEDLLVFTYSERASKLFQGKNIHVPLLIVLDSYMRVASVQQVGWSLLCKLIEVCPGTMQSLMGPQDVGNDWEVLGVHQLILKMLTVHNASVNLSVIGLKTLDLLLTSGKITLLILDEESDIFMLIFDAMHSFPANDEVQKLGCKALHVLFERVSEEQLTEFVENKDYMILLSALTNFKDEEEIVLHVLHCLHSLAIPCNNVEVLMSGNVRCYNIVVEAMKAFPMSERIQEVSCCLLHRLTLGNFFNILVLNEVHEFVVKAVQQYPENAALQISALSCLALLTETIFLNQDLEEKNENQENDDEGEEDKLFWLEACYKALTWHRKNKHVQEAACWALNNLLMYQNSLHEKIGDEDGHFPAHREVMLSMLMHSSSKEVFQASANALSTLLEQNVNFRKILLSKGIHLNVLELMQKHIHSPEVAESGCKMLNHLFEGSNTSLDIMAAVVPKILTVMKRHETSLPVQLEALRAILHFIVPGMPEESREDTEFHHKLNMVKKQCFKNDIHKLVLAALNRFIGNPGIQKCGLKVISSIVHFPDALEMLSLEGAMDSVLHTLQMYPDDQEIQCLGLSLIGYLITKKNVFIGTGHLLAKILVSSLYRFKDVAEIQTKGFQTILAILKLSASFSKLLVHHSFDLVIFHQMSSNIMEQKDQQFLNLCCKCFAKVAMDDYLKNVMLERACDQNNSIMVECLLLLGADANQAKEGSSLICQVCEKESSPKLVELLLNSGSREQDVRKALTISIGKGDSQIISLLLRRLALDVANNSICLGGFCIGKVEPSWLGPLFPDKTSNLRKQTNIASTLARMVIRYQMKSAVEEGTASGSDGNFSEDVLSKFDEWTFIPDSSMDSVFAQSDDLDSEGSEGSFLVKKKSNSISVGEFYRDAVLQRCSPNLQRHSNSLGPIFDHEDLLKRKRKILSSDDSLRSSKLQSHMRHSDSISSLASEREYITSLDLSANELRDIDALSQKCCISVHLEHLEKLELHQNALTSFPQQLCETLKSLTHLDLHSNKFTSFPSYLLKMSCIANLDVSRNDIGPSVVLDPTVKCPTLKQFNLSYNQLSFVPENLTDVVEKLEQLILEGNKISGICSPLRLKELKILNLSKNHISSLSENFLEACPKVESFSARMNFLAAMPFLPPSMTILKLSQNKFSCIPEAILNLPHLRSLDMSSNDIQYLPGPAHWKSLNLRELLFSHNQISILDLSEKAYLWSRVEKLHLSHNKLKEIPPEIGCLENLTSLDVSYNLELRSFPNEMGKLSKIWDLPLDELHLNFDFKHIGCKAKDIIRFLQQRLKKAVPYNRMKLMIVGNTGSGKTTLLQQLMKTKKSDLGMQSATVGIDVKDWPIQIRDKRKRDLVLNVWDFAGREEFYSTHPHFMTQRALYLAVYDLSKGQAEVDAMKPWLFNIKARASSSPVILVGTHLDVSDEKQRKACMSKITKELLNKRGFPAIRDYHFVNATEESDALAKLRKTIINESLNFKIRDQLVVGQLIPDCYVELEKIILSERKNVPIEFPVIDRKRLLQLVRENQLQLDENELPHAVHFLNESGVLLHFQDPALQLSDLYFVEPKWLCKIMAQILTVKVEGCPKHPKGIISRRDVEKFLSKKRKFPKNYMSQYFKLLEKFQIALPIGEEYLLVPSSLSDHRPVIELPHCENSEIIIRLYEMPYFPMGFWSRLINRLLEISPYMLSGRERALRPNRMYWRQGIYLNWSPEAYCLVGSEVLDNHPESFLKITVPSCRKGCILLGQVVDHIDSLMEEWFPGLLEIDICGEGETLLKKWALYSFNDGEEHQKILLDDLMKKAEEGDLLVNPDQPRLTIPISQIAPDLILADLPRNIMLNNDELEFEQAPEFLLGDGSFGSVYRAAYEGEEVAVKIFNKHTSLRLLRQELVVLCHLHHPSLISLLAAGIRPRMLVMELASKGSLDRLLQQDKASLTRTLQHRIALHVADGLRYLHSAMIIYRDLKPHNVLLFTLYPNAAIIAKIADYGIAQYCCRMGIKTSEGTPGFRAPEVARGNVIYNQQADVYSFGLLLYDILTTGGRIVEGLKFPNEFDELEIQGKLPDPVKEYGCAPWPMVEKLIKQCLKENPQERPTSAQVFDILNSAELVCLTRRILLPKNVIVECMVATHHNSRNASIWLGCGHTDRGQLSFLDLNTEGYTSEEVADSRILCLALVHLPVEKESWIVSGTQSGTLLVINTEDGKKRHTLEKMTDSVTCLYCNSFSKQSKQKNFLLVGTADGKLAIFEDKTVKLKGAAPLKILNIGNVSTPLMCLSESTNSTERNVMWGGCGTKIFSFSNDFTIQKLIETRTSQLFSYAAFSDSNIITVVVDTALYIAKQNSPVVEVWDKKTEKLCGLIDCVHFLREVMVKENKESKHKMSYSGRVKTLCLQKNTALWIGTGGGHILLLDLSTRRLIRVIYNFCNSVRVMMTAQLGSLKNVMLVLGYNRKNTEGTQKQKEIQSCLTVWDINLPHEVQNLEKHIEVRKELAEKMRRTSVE

Compound	pIC50
CO[C@H]1COC[C@H]1n1c(C#N)cc2cnc(Nc3ccnc4c3OC(C)(C)CC4)nc21 [Example 68, 2-((2,2-Dimethyl-3,4-dihydro-2H-pyrano[3,2-b]pyridin-8-yl)amino)-7-((3R,4R)-4-methoxytetrahydrofuran-3-yl)-7H-pyrrolo[2,3-d]pyrimidine-6-carbonitrile]	< 6.00
[2H]c1c(Nc2ncc3cc(C#N)n([C@H]4COC[C@@H]4C)c3n2)c(OC2COC2C)nn1C (stereo partly drawn) [Example 97, 2-((1-methyl-3-((2-methyloxetan-3-yl)oxy)-1H-pyrazol-4-yl-5-d)amino)-7-((3R,4R)-4-methyltetrahydrofuran-3-yl)-7H-pyrrolo[2,3-d]pyrimidine-6-carbonitrile]	7.92
CO[C@H]1COC[C@H]1n1c(C#N)cc2cnc(Nc3cn(C(C)(C)C#N)nc3OC3CC3)nc21 [Example 59, 2-((1-(2-Cyanopropan-2-yl)-3-cyclopropoxy-1H-pyrazol-4-yl)amino)-7-((3R,4R)-4-methoxytetrahydrofuran-3-yl)-7H-pyrrolo[2,3-d]pyrimidine-6-carbonitrile]	7.51
